These results are taken from US8110585B2, “Bicyclic compound and pharmaceutical use thereof” (Takeda Pharmaceutical Company Limited, priority 2007, dated 2012).

Series [1] addresses T1, human melatonin 2 receptors (human MT2 receptors) (Homo sapiens, UniProt P49286).
T1 construct: expressed in transfected cells; membrane fraction
T1 sequence (P49286 1-362): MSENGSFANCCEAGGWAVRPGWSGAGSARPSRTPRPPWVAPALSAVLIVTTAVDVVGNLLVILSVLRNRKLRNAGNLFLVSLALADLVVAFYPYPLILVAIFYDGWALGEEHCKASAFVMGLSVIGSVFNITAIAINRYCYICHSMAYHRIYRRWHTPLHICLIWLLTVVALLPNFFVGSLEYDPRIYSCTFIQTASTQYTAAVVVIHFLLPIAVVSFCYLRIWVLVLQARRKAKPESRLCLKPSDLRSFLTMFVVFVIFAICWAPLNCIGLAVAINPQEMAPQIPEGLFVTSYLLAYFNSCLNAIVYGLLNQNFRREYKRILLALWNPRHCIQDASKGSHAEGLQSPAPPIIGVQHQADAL
Put plainly: Melatonin receptor binding inhibitory test, 2-[125I] Iodomelatonin, MT2. The note with it: membrane fraction of CHO-hMT2 cells, 25° C. for 2.5 hr, read-out: binding inhibitory activity as IC50 value for MT2. As to the method:
(§1) Melatonin Receptor Binding Inhibitory Test
(2) Preparation of CHO-hMT2 Cells Expressing Human Melatonin 2 Receptors
A cDNA fragment (SEQ ID NO: 2) encoding full-length of human melatonin 2 receptors (human MT2 receptors) was incorporated into expression vector pCMV-Script (Stratagene, #212220) to give the plasmid that was pCMV-human MT2 receptors expression vector for animal cell expression. CHO-K1 cells (ATCC, #CCL-61) were plated at the concentration of 1.5×10^5 cells/cm^2 in a 6 well plate (ASAHI TECHNO GLASS), and cultured under the conditions of 37° C., 5% CO2 for 24 hr. For gene transfection, solution obtained by blending pCMV-human MT2 receptors expression vector (1.9 μg), Lipofectamine Transfection Reagent (Invitrogen, #18324-012) (11.3 μL) and Minimum Essential Medium Eagle (MEM) medium (Sigma, M8042) (93.8 μL), and reacting at room temperature for 20 min was added to the cells per one well. The transfected cells were cultured in MEM medium containing 10% FBS (Life Technology) and 300 μg/mL Geneticin (GIBCO, #10131), and the cell line that stably expressed the plasmid gene was selected. By a receptor binding assay using 2-[^125I] Iodomelatonin, CHO-hMT2 cell line showing specific binding of 2-[^125I] Iodomelatonin was selected from the obtained clones.
(§2) (3) Preparation of Cellular Membrane Fraction of CHO Cell (CHO-hMelR7 and CHO-hMT2) Stably Expressing Human MT1 and MT2 Receptors
(§3) CHO-hMelR7 and CHO-hMT2 cells were plated using Cellfactory (Nunc, #170009) under the conditions of 1×10^8 cells/2000 mL/flask. The cells were grown to confluent, and recovered by the following method. As the medium for CHO-hMelR7 and CHO-hMT2, MEM a containing 10% FBS and penicillin/streptomycin was used. […]
(§4) The medium was discarded, cells were washed twice with 200 mL of EDTA/PBS(−), 200 mL of EDTA/PBS(−) was further added, and the cells were stood still at room temperature for 20 min until they were released. The cells were recovered in four 50 mL tubes (Becton Dickinson, #352070), and centrifuged at 1,500 rpm for 10 min at 4° C. using a low speed cooling centrifuge (Hitachi, CF7D2). The supernatant was discarded, the pellets in the four tubes were suspended in 10 mL of PBS(−), and combined in one tube (Becton Dickinson, #352070). The mixture was further centrifuged at 1,500 rpm for 10 min at 4° C., and the obtained pellets were suspended in 20 mL of ice-cooled homogenizing buffer [10 mM NaHCO3, 5 mM EDTA, Protease inhibitor Complete (Roche), pH 7.4]. The cell suspension was homogenized 3 times using a polytron homogenizer at 20,000 rpm for 30 sec. The obtained homogenate was centrifuged (2,000 rpm, 10 min, 4° C.) using a low speed cooling centrifuge. The supernatant was recovered in an ultracentrifugation tube and ultracentrifuged (40,000 rpm, 60 min, 4° C.) using an ultracentrifuge (Beckman, L-90K). To the obtained pellets was added a suspending buffer [50 mM Tris-HCl, 1 mM EDTA, Protease inhibitor Complete (Roche), pH 7.4], and the pellets were suspended by pipetting. The protein concentration of this suspension was measured, diluted to 2 mg/mL to give cellular membrane fractions of CHO-hMelR7 and CHO-hMT2 cells. The membrane fractions were dispensed to 1.5 mL tubes (Eppendorf, #0030120.086) by 100 μL, preserved in a freezer (−80° C.) and used for a binding assay. Protein was quantified using BCA protein assay kit (Pierce) with BSA as the standard.
(§5) (4) Preparation of Membrane Fraction Suspension
(§6) Immediately before use, the membrane fractions of CHO-hMelR7 and CHO-hMT2 cells of the above-mentioned (3) were diluted 20-fold with assay buffer (50 mM Tris-HCl, pH 7.7).
(§7) (5) Preparation of 2-[^125I] Iodomelatonin Solution
(§8) 2-[^125I] Iodomelatonin (#NEX236, PerkinElmer) was diluted with the assay buffer to 400 pM for MT1 and 1 nM for MT2.
The assay buffer (80 μL) of the above-mentioned (4) was added to each well of a 96-well plate (type 3363, Corning). […]

For series [2], the target named is T2, human melatonin 1 receptors (human MT1 receptors) (Homo sapiens, UniProt P48039).
T2 construct: expressed in transfected cells; membrane fraction
Put plainly: Melatonin receptor binding inhibitory test, 2-[125I] Iodomelatonin, MT1. To be noted: membrane fraction of CHO-hMelR7 cells, 25° C. for 2.5 hr, read-out: binding inhibitory activity as IC50 value for MT1. As to the method: as §1
(1) Preparation of CHO-hMelR7 Cells expressing Human Melatonin 1 Receptors
A cDNA fragment (SEQ ID NO: 1) encoding full-length of human melatonin 1 receptors (human MT1 receptors) was incorporated into expression vector pAKKO-111H (former name pAKKO1.11H; Biochim Biophys Acta. Vol. 1219(2), pp. 251-259, 1994) to give plasmid pAKKO-hMelR7 for animal cell expression. CHO/dhfr-cells (ATCC, #CRL-9096) were plated at a concentration of 0.3×10^6 cells/dish in a 6 cm culture dish (Becton Dickinson), and cultured under the conditions of 37° C., 5% CO2 for 48 hr. The cells were transfected with pAKKO-hMelR7 plasmid DNA (5 μg) using Cellphect Transfection Kit (Amersham, #27-9268-01). The transfected cells were cultured in Dulbecco's modified Eagle medium (DMEM) (Sigma, #D6046) containing 10% dialyzed FBS (Biowest, #S180D), 1× Non-Essential Amino Acid (Invitrogen, #11140-050) and 50 μg/mL Gentamycin (Invitrogen, #15750-060), and the cell line that stably expressed the plasmid gene was selected. By a receptor binding assay using 2-[^125I] Iodomelatonin, CHO-hMelR7 cell line showing specific binding of 2-[^125I] Iodomelatonin was selected from the obtained clones.
as §2, §3, §4, §5, §6, §7, §8
The assay buffer (80 μL) of the above-mentioned (4) was added to each well of a 96-well plate (type 3363, Corning). Then, a test compound (compound solution diluted with DMSO to 200-fold of the final measurement concentration) was added by 2 μL. […]

For orientation: melting point means the temperature, or range, at which the solid turns liquid. The term pIC50 denotes the negative decadic logarithm of the IC50, by convention in mol/L.

pIC50: −log10 of the molar value. Where only a bound is given, the exact number is not on record here.

T2 sequence (P48039 whole entry): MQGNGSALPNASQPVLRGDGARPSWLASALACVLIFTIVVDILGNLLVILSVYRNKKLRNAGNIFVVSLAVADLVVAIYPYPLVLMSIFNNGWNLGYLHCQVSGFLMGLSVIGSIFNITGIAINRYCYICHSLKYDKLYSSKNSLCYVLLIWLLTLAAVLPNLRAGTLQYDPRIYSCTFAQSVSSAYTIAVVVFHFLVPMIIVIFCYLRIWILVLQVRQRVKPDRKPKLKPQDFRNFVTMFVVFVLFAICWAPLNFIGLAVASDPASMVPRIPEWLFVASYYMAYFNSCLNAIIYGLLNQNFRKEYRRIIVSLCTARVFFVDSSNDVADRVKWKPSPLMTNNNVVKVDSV

As for `CC(=O)NCC1CC1c1c(Cl)ccc2nn(C)cc12` (stereo not drawn) [Example 27, N-{[2-(5-chloro-2-methyl-2H-indazol-4-yl)cyclopropyl]methyl}acetamide], the melting point was 149 to 150 °C. The pIC50 in series [1] was no less than 7.00. In addition, the pIC50 in series [2] is no less than 7.00.

Regarding `CCC(=O)NCC1CC1c1c(Cl)ccc2nn(C)cc12` (stereo not drawn) [Example 28, N-{[2-(5-chloro-2-methyl-2H-indazol-4-yl)cyclopropyl]methyl}propanamide], the melting point lay in the range of 152 to 153 °C. The pIC50 in series [1] was no less than 7.00. For the same compound, in series [2], the pIC50 is no less than 7.00.

Consider `CC(=O)NCC1CC1c1c(Br)ccc2nn(C)cc12` (stereo not drawn) [Example 29, N-{[2-(5-bromo-2-methyl-2H-indazol-4-yl)cyclopropyl]methyl}acetamide], for which the melting point is 135 to 137 °C. Besides, in series [1], the pIC50 is no less than 7.00. The pIC50 in series [2] was no less than 7.00.

`CCC(=O)NCC1CC1c1c(Br)ccc2nn(C)cc12` (stereo not drawn) [Example 30, N-{[2-(5-bromo-2-methyl-2H-indazol-4-yl)cyclopropyl]methyl}propanamide] registered a melting point of 119 to 121 °C. Moreover, the pIC50 in series [1] is no less than 7.00. Moreover, the pIC50 in series [2] was no less than 7.00.

`CC(=O)NCC1CC1c1c(C)ccc2nn(C)cc12` (stereo not drawn) [Example 31, N-{[2-(2,5-dimethyl-2H-indazol-4-yl)cyclopropyl]methyl}acetamide] registered a melting point of 139 to 140 °C. Also, the pIC50 in series [1] is no less than 7.00. Moreover, in series [2], the pIC50 is no less than 7.00.

For `CC(=O)NCC1CC1c1c(C2CC2)ccc2nn(C)cc12` (stereo not drawn) [Example 33, N-{[2-(5-cyclopropyl-2-methyl-2H-indazol-4-yl)cyclopropyl]methyl}acetamide], the melting point was 102 to 103 °C. In addition, the negative logarithm of the IC50 (pIC50) in series [1] is no less than 7.00. For the same compound, the pIC50 in series [2] is no less than 7.00.

Consider `CC(=O)NCC1CC1c1c(-c2ccccc2)ccc2nn(C)cc12` (stereo not drawn) [Example 34, N-{[2-(2-methyl-5-phenyl-2H-indazol-4-yl)cyclopropyl]methyl}acetamide], for which the melting point lay within 156 to 158 °C. Further, the pIC50 in series [1] was no less than 7.00. For the same compound, in series [2], the pIC50 is no less than 7.00.

Consider `CC(=O)NCC1CC1c1c(-c2cccnc2)ccc2nn(C)cc12` (stereo not drawn) [Example 35, N-{[2-(2-methyl-5-pyridin-3-yl-2H-indazol-4-yl)cyclopropyl]methyl}acetamide], for which the melting point lay in the range of 136 to 138 °C. Besides, the pIC50 in series [1] is no less than 7.00. Moreover, in series [2], the pIC50 was no less than 7.00.

Take `CC(=O)NCC1CC1c1c(C#N)ccc2nn(C)cc12` (stereo not drawn) [Example 36, N-{[2-(5-cyano-2-methyl-2H-indazol-4-yl)cyclopropyl]methyl}acetamide]: the melting point lay within 189 to 192 °C. Moreover, in series [1], the pIC50 was no less than 7.00. For the same compound, the pIC50 in series [2] is no less than 7.00.

Compound `COc1ccc2nn(C)cc2c1C1CC1CNC(C)=O` (stereo not drawn) [Example 37, N-{[2-(5-methoxy-2-methyl-2H-indazol-4-yl)cyclopropyl]methyl}acetamide] came in with a melting point of 104 to 105 °C. Also, the pIC50 in series [1] is no less than 7.00. Also, the pIC50 in series [2] was no less than 7.00.

Take `CC(=O)NCC1CC1c1ccc(F)c2nn(C)cc12` (stereo not drawn) [Example 38, N-{[2-(7-fluoro-2-methyl-2H-indazol-4-yl)cyclopropyl]methyl}acetamide]: the melting point was 147 to 148 °C. For the same compound, the pIC50 in series [1] is no less than 7.00. The pIC50 in series [2] was no less than 7.00.

`CC(=O)NCC1CC1c1ccc(Cl)c2nn(C)cc12` (stereo not drawn) [Example 39, N-{[2-(7-chloro-2-methyl-2H-indazol-4-yl)cyclopropyl]methyl}acetamide] gave a melting point of 153 to 155 °C. For the same compound, the pIC50 in series [1] is no less than 7.00. Besides, the pIC50 in series [2] is no less than 7.00.

`CC(=O)NC[C@H]1C[C@@H]1c1cccn2nc(C)cc12` [Example 43, N-{[(1S,2S)-2-(2-methylpyrazolo[1,5-a]pyridin-4-yl)cyclopropyl]methyl}acetamide]: the melting point was in the range of 69 to 70 °C. Besides, the pIC50 in series [1] was no less than 7.00. Besides, the pIC50 in series [2] is no less than 7.00.

As for `CC(=O)NC[C@@H]1C[C@H]1c1cccn2nc(C)cc12` [Example 44, N-{[(1R,2R)-2-(2-methylpyrazolo[1,5-a]pyridin-4-yl)cyclopropyl]methyl}acetamide], the melting point fell in the range of 100 to 101 °C. Moreover, in series [1], the pIC50 was no less than 7.00. In series [2], the pIC50 was no less than 7.00.

Regarding `Cc1cc2c([C@H]3C[C@@H]3CNC(=O)C3CC3)cccn2n1` [Example 48, N-{[(1S,2S)-2-(2-methylpyrazolo[1,5-a]pyridin-4-yl)cyclopropyl]methyl}cyclopropanecarboxamide], the melting point was 124 to 128 °C. For the same compound, the pIC50 in series [1] was no less than 7.00. The pIC50 in series [2] was no less than 7.00.

As for `Cc1cc2c([C@@H]3C[C@H]3CNC(=O)C3CC3)cccn2n1` [Example 49, N-{[(1R,2R)-2-(2-methylpyrazolo[1,5-a]pyridin-4-yl)cyclopropyl]methyl}cyclopropanecarboxamide], the melting point was in the range of 127 to 129 °C. The pIC50 in series [1] is no less than 7.00. The pIC50 in series [2] is no less than 7.00.

For the compound `CC(=O)NCC1CC1c1cccc2nc(C)cn12` (stereo not drawn) [Example 52, N-{[2-(2-methylimidazo[1,2-a]pyridin-5-yl)cyclopropyl]methyl}acetamide], the melting point was in the range of 170 to 171 °C. In series [1], the pIC50 was no less than 7.00. For the same compound, the pIC50 in series [2] is no less than 7.00.
